Assay results taken from patent US8236754B2, “Methods for improving the structure and function of arterioles” (The Regents of the University of California, priority 2004, dated 2012).
“Also recorded” adds a separate entry of the source. Non-standard residues stand in square brackets, D forms with d.

Assays:
[1] = tested on: facial artery of LDL receptor null mice; assay: Facial artery ring vasoreactivity, acetylcholine relaxation after oral treatment; assay type: in vivo; conditions: Western diet, 1 mg/mL in drinking water, six weeks
apoe null mice = conditions: oral DMPC; cited from earlier work
mouse facial artery = conditions: published studies; cited from earlier work
[2] = tested on: brain arterioles of LDL receptor null mice; assay: Brain arteriolar wall thickness and lumen diameter by morphometry on H&E sections; assay type: in vivo; conditions: Western diet 6 weeks, 300 μg/mL in drinking water, D-4F vs scrambled D-4F
Experimental: Female wild-type and LDL receptor null C57BL/6 mice were from Jackson Laboratories (Bar Harbour, Me.). The mice were maintained on a chow diet (Ralston Purina) prior to administration of a Western diet (Teklad/Harlan, Madison Wis., diet No. 88137; 42% fat, 0.15% cholesterol, w/w). For studies of brain arterioles the mice were anesthetized with intramuscular ketamine (100 mg/kg) and acepromazine (2.5 mg/kg) and the heart was perfused via the left ventricle with 25 mL phosphate buffered saline (PBS) containing heparin (10 U/mL) followed by 100 mL of 4% paraformaldehyde (PFA) in PBS at pH 7.4 as described by Fernagut et al. (Fernagut et al. (2002) Neuroscience, 114: 1005-1017; Fernagut et al. (2004) Exp Neurol., 185: 47-62). Brains were quickly removed and stored for 24 hrs in 4% PFA at 4° C. and then transferred to 10% sucrose in PBS (pH 7.4) and left until they sank to the bottom of the solution. The right half of the brains were embedded in OCT (Tissue-Tek; Miles Laboratories Ltd, Elkhart Ind.) and frozen in isopentane at −40° C. and stored at −80° C. until sectioned in a cryostat at −20° C. The frozen brain was cut into 8 μm sections coronally to include the underlying white matter and stained with hematoxylin-eosin (H&E) and for smooth muscle α-actin (Serotec, Raleigh, N.C.). […]
(§1) Morphometry was performed to determine vascular wall thickness for all arterioles that were distended and perpendicularly cross-sectioned. […] A minimum of 10 arteries from each diameter group was examined in the cortical area and the deep white matter regions from each brain, and the wall thickness and wall to lumen ratios determined. The ratio of immunoreactive media thickness to the internal diameter of each vessel was assessed in sections immunostained for smooth muscle α-actin. […] Inter-observer variation was determined by having the three investigators measure the same 20 arterioles for wall thickness and lumen diameter and calculate the wall to lumen ratio. […]

[3] = tested on: brain arteriolar smooth muscle α-actin; assay: Brain arteriolar smooth muscle α-actin immunostaining, wall to lumen ratio; assay type: in vivo; conditions: LDL receptor null mice, Western diet 6 weeks, 300 μg/mL in drinking water; D-4F vs scrambled D-4F
Experimental: Female wild-type and LDL receptor null C57BL/6 mice were from Jackson Laboratories (Bar Harbour, Me.). The mice were maintained on a chow diet (Ralston Purina) prior to administration of a Western diet (Teklad/Harlan, Madison Wis., diet No. 88137; 42% fat, 0.15% cholesterol, w/w). For studies of brain arterioles the mice were anesthetized with intramuscular ketamine (100 mg/kg) and acepromazine (2.5 mg/kg) and the heart was perfused via the left ventricle with 25 mL phosphate buffered saline (PBS) containing heparin (10 U/mL) followed by 100 mL of 4% paraformaldehyde (PFA) in PBS at pH 7.4 as described by Fernagut et al. (Fernagut et al. (2002) Neuroscience, 114: 1005-1017; Fernagut et al. (2004) Exp Neurol., 185: 47-62). […]
as §1

LDL receptor null mice = assay: T-maze continuous alternation task (T-CAT), spatial memory; assay type: in vivo
Experimental: T-maze continuous alternation task (T-CAT) testing took place daily between 9 A.M. and 4 P.M. and was performed by one investigator unaware of the treatment groups. The mice were delivered to the testing room two hours prior to behavioral studies to allow familiarization with the extra-maze visual cues of the room. The T-maze apparatus used in our studies is identical to the one described by Gerlai et al. (Gerlai (1998) Behavioural Brain Research, 95: 91-101) and was made of transparent acrylic walls with a black acrylic bottom. The dimensions of start and goal arms were: length 75 cm, width 12 cm and height 20 cm. The maze was equipped with three removable guillotine doors that could be operated by manual remote control. The testing room was illuminated by ceiling and floor lights and a fan provided a constant background noise. The T-maze was separated from the investigator by a black curtain and the movement of the mice in the maze was observed on a TV monitor and videotaped. After each individual mouse the T-maze was carefully cleaned with Windex spray and dried with paper towels. The T-maze continuous alternation task (T-CAT) limits the handling of mice and permits their exploratory behavior to be carried out undisturbed. The procedure used in this study is identical to that described by Gerlai et al. (Id.) and consisted of one forced and 14 free choice trials. Consecutive choices made by the mice were measured and the alternation rate during the 14 free choice trials was calculated (0%-no alternation, 100%-alternation at each trial, 50%-random choice). The time (in seconds) needed to complete the 15 trials was recorded and analyzed. The T-CAT testing was continuously registered by a video tracking system (SD Instruments Inc., San Diego, Calif.) and stored on a computer. Statistics were performed using StatView software (SAS Institute, Cary, N.C.)

[4] = Plasma lipoprotein and lipid levels; assay type: in vivo, mice
Experimental: Plasma lipoprotein and lipid levels were determined as described previously (Navab et al. (2004) Circulation, 109:r120-r125; Navab et al. (2005) Arterioscler Thromb Vasc Biol., 25: 1-7).

LDL lipid hydroperoxides = conditions: mice, oral D-4F, without changing plasma lipid levels; cited from earlier work
[5] = LDL receptor null mice, Western diet 6 weeks, 300 μg/mL in drinking water, Mean±SEM

CCCCCCCCCCCCCC(=O)OCC(COP(=O)([O-])OCC[N+](C)(C)C)OC(=O)CCCCCCCCCCCCC (racemic) [DMPC, 1,2-ditetradecanoyl-rac-glycerol-3-phosphocholine]
acetylcholine vasorelaxation of facial artery rings [1]: significant improvement; also recorded: improves
HDL-cholesterol (apoe null mice): increase
atherosclerosis (apoe null mice): prevention and regression
plasma apoA-I levels (apoe null mice): increase

Ac-D-W-F-K-A-F-Y-D-K-V-A-E-K-F-K-E-A-F-NH2 [4F] (Ac-DWFKAFYDKVAEKFKEAF-NH2) [Peptide 4F]
vasoreactivity of facial arteries (mouse facial artery): dramatically improved

Ac-D-W-F-K-A-F-Y-D-K-V-A-E-K-F-K-E-A-F-NH2 [D-4F] (Ac-[dD][dW][dF][dK][dA][dF][dY][dD][dK][dV][dA][dE][dK][dF][dK][dE][dA][dF]-NH2) [Peptide D-4F, apoA-I mimetic peptide]
brain arteriolar wall thickness [2]: decreased; also recorded: reduced
lumen diameters of the brain arterioles [2]: no difference
ratio of wall to lumen diameter [2]: significantly less
brain arteriolar wall smooth muscle α-actin content [3]: significantly reduced
performance in the T-maze / T-CAT (spatial memory) (LDL receptor null mice; LDL receptor null mice, Western diet, oral treatment): significantly improved
time to complete the 15 trials (LDL receptor null mice; LDL receptor null mice, Western diet, oral treatment, difference not statistically significant): 548 ± 37 s
performance in the T-maze / T-CAT (spatial memory) (LDL receptor null mice; LDL receptor null mice, Western diet, oral treatment, listed as D4F): improvement
number of spontaneous alternations in the T-maze test (LDL receptor null mice; LDLR−/− mice, Western diet six weeks, 300 μg/mL in drinking water): significantly improved
difference in plasma total cholesterol, LDL-cholesterol, HDL-cholesterol or triglycerides ([4]; D-4F compared to scrambled D-4F): no significant difference
HDL cholesterol concentration [4, 5]: 86 ± 6 mg/dL
LDL cholesterol concentration [4, 5]: 924 ± 76 mg/dL
Triglycerides [4, 5]: 330 ± 25 mg/dL
plasma total cholesterol concentration [4, 5]: 1,076±75 mg/dL
vasoreactivity of facial arteries (mouse facial artery): improved
LDL lipid hydroperoxides (LDL lipid hydroperoxides): decrease
